The NIST ThermoML archive (doi:10.1016/j.tca.2015.02.020)

Assay: molar heat capacity at constant pressure; xn = mol fraction of the nth substance listed
Settings: 101 kPa, Liquid, Small sample (50 mg) DSC

CC(O)CN (stereo unspecified) [1-amino-2-propanol] + O
Settings	molar heat capacity at constant pressure [J/K/mol]
207.73 K, x1 = 0.68	127.89
209.98 K, x1 = 0.19	80.53
209.98 K, x1 = 0.26	88.72
210.13 K, x1 = 0.68	136.98
210.14 K, x1 = 0.16	76.29
212.31 K, x1 = 0.16	80.64
212.31 K, x1 = 0.19	81.68
212.31 K, x1 = 0.26	87.41
212.33 K, x1 = 0.15	76.55
212.46 K, x1 = 0.68	129.03
213.3 K, x1 = 0.19	80.82
213.3 K, x1 = 0.26	89.38
213.45 K, x1 = 0.16	76.84
213.45 K, x1 = 0.68	137.55
217.04 K, x1 = 0.19	82.55
217.04 K, x1 = 0.26	88.06
217.05 K, x1 = 0.16	81.72
217.07 K, x1 = 0.15	77.88
217.19 K, x1 = 0.68	129.59
219.93 K, x1 = 0.19	82.26
219.93 K, x1 = 0.26	90.36
220.08 K, x1 = 0.68	136.98
220.09 K, x1 = 0.16	76.56
221.78 K, x1 = 0.19	83.7
221.79 K, x1 = 0.16	83.08
221.79 K, x1 = 0.26	89.71
221.81 K, x1 = 0.15	79.21
221.94 K, x1 = 0.68	130.73
223.25 K, x1 = 0.19	82.84
223.25 K, x1 = 0.26	91.35
226.53 K, x1 = 0.16	84.44
226.53 K, x1 = 0.19	84.86
226.53 K, x1 = 0.26	91.02
226.55 K, x1 = 0.15	80.8
226.68 K, x1 = 0.68	132.44
229.89 K, x1 = 0.26	92.99
231.26 K, x1 = 0.19	86.01
231.26 K, x1 = 0.26	92.34
231.27 K, x1 = 0.16	85.52
231.3 K, x1 = 0.15	82.4
231.42 K, x1 = 0.68	133.57
233.2 K, x1 = 0.26	94.31
236.01 K, x1 = 0.16	86.88
236.01 K, x1 = 0.19	87.46
236.01 K, x1 = 0.26	93.65
236.04 K, x1 = 0.15	83.99
236.16 K, x1 = 0.68	135.28
239.85 K, x1 = 0.26	96.28
240.75 K, x1 = 0.16	88.51
240.75 K, x1 = 0.19	88.61
240.75 K, x1 = 0.26	94.96
240.78 K, x1 = 0.15	85.59
240.9 K, x1 = 0.68	136.98
243.17 K, x1 = 0.26	97.59
245.5 K, x1 = 0.16	89.6
245.5 K, x1 = 0.19	90.05
245.5 K, x1 = 0.26	96.61
245.53 K, x1 = 0.15	87.18
245.64 K, x1 = 0.68	138.69
249.82 K, x1 = 0.26	99.89
250.25 K, x1 = 0.16	90.95
250.25 K, x1 = 0.19	91.5
250.25 K, x1 = 0.26	97.92
250.28 K, x1 = 0.15	88.51
250.4 K, x1 = 0.68	140.39
253.15 K, x1 = 0.26	101.21
255 K, x1 = 0.16	91.77
255 K, x1 = 0.19	92.36
255 K, x1 = 0.26	99.24
255.03 K, x1 = 0.15	89.84
255.14 K, x1 = 0.68	142.67
259.75 K, x1 = 0.16	92.85
259.75 K, x1 = 0.19	93.81
259.75 K, x1 = 0.26	100.55
259.78 K, x1 = 0.15	90.9
259.8 K, x1 = 0.19	95.54
259.8 K, x1 = 0.26	103.51
259.89 K, x1 = 0.68	144.37
259.95 K, x1 = 0.16	93.4
259.95 K, x1 = 0.68	154.04
259.96 K, x1 = 0.15	93.83
263.13 K, x1 = 0.19	96.69
263.13 K, x1 = 0.26	104.82
263.27 K, x1 = 0.68	155.17
263.28 K, x1 = 0.16	94.48
263.29 K, x1 = 0.15	94.62
264.5 K, x1 = 0.16	93.94
264.5 K, x1 = 0.19	94.96
264.5 K, x1 = 0.26	101.87
264.53 K, x1 = 0.15	92.23
264.64 K, x1 = 0.68	146.65
269.26 K, x1 = 0.16	94.48
269.26 K, x1 = 0.19	95.83
269.26 K, x1 = 0.26	103.18
269.29 K, x1 = 0.15	93.29
269.4 K, x1 = 0.68	148.35
269.78 K, x1 = 0.19	98.71
269.79 K, x1 = 0.26	107.45
269.93 K, x1 = 0.68	158.01
269.94 K, x1 = 0.16	96.66
269.95 K, x1 = 0.15	96.75
273.12 K, x1 = 0.19	99.87
273.13 K, x1 = 0.26	108.44
273.27 K, x1 = 0.68	159.15
273.29 K, x1 = 0.15	97.28
273.29 K, x1 = 0.16	97.74
274.05 K, x1 = 0.16	95.3
274.05 K, x1 = 0.19	96.98
274.05 K, x1 = 0.26	104.49
274.09 K, x1 = 0.15	93.83
274.2 K, x1 = 0.68	150.62
278.96 K, x1 = 0.26	105.81
278.97 K, x1 = 0.16	96.11
278.97 K, x1 = 0.19	98.13
279 K, x1 = 0.15	94.89
279.12 K, x1 = 0.68	152.9
280 K, x1 = 0.19	101.02
280.01 K, x1 = 0.26	109.42
280.15 K, x1 = 0.68	160.29
280.17 K, x1 = 0.15	97.81
280.17 K, x1 = 0.16	98.83
283.44 K, x1 = 0.19	101.31
283.44 K, x1 = 0.26	110.08
283.59 K, x1 = 0.68	160.86
283.61 K, x1 = 0.16	99.37
283.62 K, x1 = 0.15	98.08
283.88 K, x1 = 0.16	96.38
283.88 K, x1 = 0.19	97.85
283.88 K, x1 = 0.26	106.79
283.92 K, x1 = 0.15	95.42
284.02 K, x1 = 0.68	155.17
